Molecules are shown by their SMILES. Values joined by “and” are separate entries in the source; they are usually repeats but may differ in a detail not shown here. Equal values may be shown once.

The text below walks through data of PMC10862539, “Chelation of Mitochondrial Iron as an Antiparasitic Strategy” (ACS Infectious Diseases, 2024).

Assay [1] has as its system Cryptococcus neoformans. The assay can be described thus: C. neoformans capsule size (India ink microscopy). In kind it is cell-based. As to conditions: 20 μM mitoDFO for 24 h; 31 cells. On the procedure: C. neoformans capsule thickness was measured using a previously published protocol.[33] Briefly, the yeast was seeded in 1 mL of RPMI in a 24 well plate with and without a final concentration of 20 μM mitoDFO for 24 h at 35 °C. The culture was harvested (1300 g, 5 min, RT) and resuspended in 50 μL of RPMI. An equal amount of India Ink (Thermo-Fisher) was added, and a total volume of 15 μL of resuspended cells was placed on a microscope slide, covered with cover glass, and imaged on an Eclipse TI-S (Nikon) inverted microscope using 100× magnification. A total of 31 cells were randomly selected, excluding morphologically anomalous and overlapping cells. Using NIS Elements BR (Nikon), the inner and outer diameters of each cell were measured, and cell size and capsule thickness were calculated. Graphs were plotted, and an unpaired t-test was performed using Prism 8.0 (GraphPad Software).

The subject of assay [2] is T. brucei 427 bloodstream form. The assay can be described thus: Reactive oxygen species determination (H2DCFDA, flow cytometry). The class given is cell-based, Trypanosoma brucei. The settings on record: twice the EC50 value (0.12 μM), 24 h. On the procedure:
T. brucei 427 bloodstream form’s cellular ROS production was assessed using H2DCFDA (Sigma-Aldrich). Cells were preincubated for 24 h with 0.12 μM mitoDFO, and approximately 1 × 10^6 cells were incubated with 10 μM H2DCFDA for 30 min and washed with PBS with 6 mM glucose, and 10 000 events were measured on a Guava EasyCyte 8HT flow cytometer (Luminex) using a 488 excitation laser and a 525/30 detector. Median fluorescence was plotted against untreated culture using Prism 8.0 (GraphPad Software), and statistical significance was determined using a two-tailed paired t-test. The experiment was performed in three biologically independent replicates.

In assay [3] the target is isolated mitochondria of T. brucei 427. The assay can be described thus: Mitochondrial membrane intactness in isolated mitochondria (threonine dehydrogenase marker). Also on record: species or system Trypanosoma brucei. As to conditions: threonine dehydrogenase activity as marker, read-out: 50% membrane intactness (inner membrane permeability increased by 50%). How it is done:
Mitochondrial intactness was assessed by isolating the mitochondrial fraction of untreated cells, as described above, without the addition of Triton X-100 and adding different concentrations of mitoDFO. Threonine dehydrogenase activity was measured as a marker of the disintegration of mitochondrial membranes. Triton X-100 was used to disrupt membrane integrity and served as a positive control to obtain maximum activity. All experiments were performed in at least three biologically independent replicates and plotted and analyzed using Prism 8.0 (GraphPad Software).

For assay [4], the system named is T. brucei 427 bloodstream form. The assay can be described thus: Mitochondrial membrane potential (TMRE, flow cytometry). The class given is cell-based, Trypanosoma brucei. The arrangement: dose or concentration left out as unconfirmed. The settings on record: 0.12, 0.3, and mitoDFO for 24 h. On the procedure:
T. brucei 427 bloodstream form’s mitochondrial membrane potential was assessed using the fluorescent probe TMRE (Thermo Fisher Scientific). […] Approximately 1 × 10^6 cells were incubated with 60 nM TMRE for 30 min and washed with PBS with 6 mM glucose, and 10 000 events were measured on a Guava EasyCyte 8HT flow cytometer (Luminex) using a 488 excitation laser and a 583/26 detector. Median fluorescence was plotted against untreated culture using Prism 8.0 (GraphPad Software), and statistical significance was determined using RM one-way ANOVA with Geisser-Greenhouse correction. The experiment was performed in three biologically independent replicates.
For orientation: A flow cytometer gives signals particle by particle.

The test system of assay [5] is Human fibroblast BJ1. Also on record: method as in C. Sandoval-Acuña et al.[25]. The settings on record: ref C. Sandoval-Acuña et al.[25], read-out: control EC50; cited from earlier work.

Regarding `CC(=O)N(O)CCCCCNC(=O)CCC(=O)N(O)CCCCCNC(=O)CCC(=O)N(O)CCCCCN(CCCCCCCCCC[P+](c1ccccc1)(c1ccccc1)c1ccccc1)CCCCCCCCCC[P+](c1ccccc1)(c1ccccc1)c1ccccc1` [mitoDFO], the capsule thickness result in assay [1] is given as “increases significantly”. Besides, the overall cell size result in assay [1] was “remains the same”. Moreover, the “increase in the presence of ROS compared to the culture without treatment” value in assay [2] is “approximately 3.5 fold”. For the same compound, the EC50 was 63.2 µM and 63 µM in assay [3]; 7.9 ± 3.9 µM in assay [5]. In addition, in assay [4], the mitochondrial membrane potential result was “rapidly reduced in a dose-dependent manner”.
